Converted amounts (≈) assume the structure as drawn. “And” between values parts separate entries of the source, which are not always exact repeats. Equal entries are not always repeated. Where two headings read alike, the source gives them in different places.
Key:
[1] = molecular target: T1, full-length beta-Catenin (Uniprot ID P35222) (Homo sapiens, UniProt P35222); assay: Fluorescence polarization IC50 (beta-catenin / 5FAM-TCF4 10-53 competition); format: binding; conditions: read-out: beta-Catenin FP IC50
T1 construct: 10 nM full-length beta-Catenin (Uniprot ID P35222)
T1 sequence (P35222 1-781): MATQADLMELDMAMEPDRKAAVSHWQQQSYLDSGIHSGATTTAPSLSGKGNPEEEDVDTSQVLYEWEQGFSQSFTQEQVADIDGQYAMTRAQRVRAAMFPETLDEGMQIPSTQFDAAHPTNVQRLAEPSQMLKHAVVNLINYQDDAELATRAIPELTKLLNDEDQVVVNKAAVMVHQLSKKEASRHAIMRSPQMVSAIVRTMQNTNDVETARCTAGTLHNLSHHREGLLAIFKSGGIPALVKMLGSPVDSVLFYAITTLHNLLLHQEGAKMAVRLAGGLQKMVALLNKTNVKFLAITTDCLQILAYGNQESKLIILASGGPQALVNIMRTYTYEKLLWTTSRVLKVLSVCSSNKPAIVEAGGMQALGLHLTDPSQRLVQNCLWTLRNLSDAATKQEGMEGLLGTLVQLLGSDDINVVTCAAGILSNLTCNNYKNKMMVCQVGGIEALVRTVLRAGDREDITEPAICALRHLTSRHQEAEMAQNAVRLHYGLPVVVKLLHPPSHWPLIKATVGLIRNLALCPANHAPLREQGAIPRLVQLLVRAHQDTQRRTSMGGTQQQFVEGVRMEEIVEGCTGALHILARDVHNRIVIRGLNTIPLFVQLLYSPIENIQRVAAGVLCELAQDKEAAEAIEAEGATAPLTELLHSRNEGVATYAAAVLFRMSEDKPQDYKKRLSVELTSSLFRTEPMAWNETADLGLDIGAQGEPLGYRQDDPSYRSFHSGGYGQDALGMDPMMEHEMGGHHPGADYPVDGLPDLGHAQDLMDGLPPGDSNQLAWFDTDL

[2] = CHI Log D procedure; format: physicochemical; conditions: pH 7.4, CHI Log D
[3] = Solubility in PBS; format: physicochemical; conditions: Solubility (uM)
Summary of the method: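 HPLC quantitation of peptide remaining in the PBS supernatant after ultracentrifugation, referenced to a 50 μM solution in DMSO.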

[4] = molecular target: T2, beta-catenin/TCF4 engagement (Homo sapiens, UniProt P35222); assay: Nano-BRET target engagement assay (B-cat-Halo & TCF4-Luc in HEK293 cells); format: cell-based
T2 construct: expressed in transfected cells; host or cells: HEK293
T2 sequence (P35222 1-781): T1 sequence (P35222 1-781)

[5] = test system: TCF/LEF luciferase Reporter in DLD1 cells; assay: TCF reporter assay (DLD1 TCF/LEF luciferase reporter, Bright-Glo); format: cell-based; conditions: for DLD1 TCF c2 BrightGlo % Inhibition: replicates
Summary of the method: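 DLD1 cells stably carrying a TCF/LEF luciferase reporter were plated at 5000 cells/well in RPMI + 4% FBS and treated overnight with a 1:2 compound dilution series. Bright-Glo luminescence read on day 3; viability by CellTiter-Glo. Absolute IC50 determined.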

[6] = absolute IC50, read-out: NanoBRET Abs IC50
[7] = absolute IC50, read-out: DLD1 reporter assay Abs IC50
[8] = first dose = 20 uM (plate map), 20 µM
[9] = read-out: DLD1 4% Abs IC50, DLD1 4%
[10] = third dose = 5 uM (plate map), 5 µM

Structure (SMILES)	IC50 [1]	chromatographic logD [2]	Solubility [3]	IC50 [4, 6]	IC50 [5, 7]	DLD1 TCF c2 BrightGlo % Inhibition [5, 8]	IC50 [5, 9]	DLD1 TCF c2 BrightGlo % Inhibition ([5]; 0.625 µM)	DLD1 TCF c2 BrightGlo % Inhibition ([5]; 1.25 µM)	DLD1 TCF c2 BrightGlo % Inhibition ([5]; 2.5 µM)	DLD1 TCF c2 BrightGlo % Inhibition ([5]; 10 µM)	DLD1 TCF c2 BrightGlo % Inhibition [5, 10]	IC50 ([4]; read-out: NanoBRET Abs IC50)	IC50 ([4]; read-out: NanoBRET IC50)
CC(=O)N1CCC[C@]12CC=CCCCC1(CCCC=CCCCOC(=O)N3CC[C@@](C(=O)N[C@@H](Cc4ccccc4Cl)C(=O)N[C@@H](Cc4csc5ccccc45)C(=O)N[C@@H](C(N)=O)[C@H](C)O)(C3)NC(=O)[C@H](CC(N)=O)NC(=O)[C@H](Cc3ccccc3)NC(=O)[C@H](C)NC(=O)[C@H](C)NC(=O)[C@H](CC(=O)O)NC(=O)[C@H](CCC(=O)O)NC1=O)NC(=O)[C@H](CC(C)(C)C)NC(=O)[C@H](CC(=O)O)NC2=O (stereo partly drawn) [I-1030, Ac-PL3-Asp-Npg-B5-Glu-Asp-Ala-Ala-Phe-Asn-PyrS2-2C1F-BztA-dThr-NH2]	0.507 µM	2.76	47 µM (≈ 90.9 µg/mL)	> 20 µM	> 20 µM	–	–	–	–	–	–	–	–	–
CC(=O)N1CCC[C@]12CC=CCCCC1(CCCC=CCCCOC(=O)N3CC[C@@](C(=O)N[C@@H](Cc4ccccc4Cl)C(=O)N[C@@H](Cc4csc5ccccc45)C(=O)N[C@@H](C)CO)(C3)NC(=O)[C@H](CC(N)=O)NC(=O)[C@H](Cc3ccccc3)NC(=O)[C@H](C)NC(=O)[C@H](C)NC(=O)[C@H](CC(=O)O)NC(=O)[C@H](CC(=O)O)NC1=O)NC(=O)[C@H](CC(C)(C)C)NC(=O)[C@H](CC(=O)O)NC2=O (stereo partly drawn) [I-1081, Ac-PL3-Asp-Npg-B5-Asp-Asp-Ala-Ala-Phe-Asn-PyrS2-2C1F-BztA-Alao1]	0.005 µM	2.4	43 µM (≈ 80.7 µg/mL)	16.7 µM	10 µM	67.2% and 69.3% and 72.3%	10.6 µM	9.2% and 7.1% and 11.5%	0.8% and 2.4% and 5.4%	4.5% and 7.9% and 15.2%	45.6% and 49.8% and 55.3%	17.5% and 23.8% and 31.0%	–	–
CC(=O)N1CCC[C@]12CC=CCCCC1(CCCC=CCCCOC(=O)N3CC[C@@](C(=O)N[C@@H](Cc4ccsc4)C(=O)N[C@@H](Cc4csc5ccccc45)C(=O)N[C@H](C(N)=O)[C@@H](C)O)(C3)NC(=O)[C@H](CC(N)=O)NC(=O)[C@H](Cc3ccccc3)NC(=O)[C@H](C)NC(=O)[C@H](C)NC(=O)[C@H](CC(=O)O)NC(=O)[C@H](CC(=O)O)NC1=O)NC(=O)[C@H](CC(C)(C)C)NC(=O)[C@H](CC(=O)O)NC2=O (stereo partly drawn) [I-814, Ac-PL3-Asp-Npg-B5-Asp-Asp-Ala-Ala-Phe-Asn-PyrS2-3Thi-BztA-Thr-NH2]	0.007 µM	2.1	47 µM (≈ 88.9 µg/mL)	–	–	–	16.5 µM	–	–	–	–	–	18.9 µM	12.7 µM
CC(=O)N1CCC[C@]12CC=CCCCC1(CCCC=CCCCOC(=O)N3CC[C@@](C(=O)N[C@@H](Cc4ccccc4Cl)C(=O)N[C@@H](Cc4csc5ccccc45)C(=O)N[C@@H](CO)C(N)=O)(C3)NC(=O)[C@H](CO)NC(=O)[C@H](Cc3ccccc3)NC(=O)[C@H](C)NC(=O)[C@H](C)NC(=O)[C@H](CC(=O)O)NC(=O)[C@H](CC(=O)O)NC1=O)NC(=O)[C@H](CC1CCCCC1)NC(=O)[C@H](CC(=O)O)NC2=O (stereo partly drawn) [I-1050, Ac-PL3-Asp-Cha-B5-Asp-Asp-Ala-Ala-Phe-Ser-PyrS2-2C1F-BztA-Ser-NH2]	0.005 µM	2.45	43 µM (≈ 81.9 µg/mL)	24.8 µM	11.2 µM	61.5% and 59.8% and 58.7%	–	13.7% and 5.5% and 6.1%	6.8% and −0.9% and −4.5%	6.2% and 1.9% and −2.2%	50.8% and 46.4% and 39.4%	25.4% and 24.7% and 12.9%	–	–
CC(=O)N1CCC[C@]12CC=CCCCC1(CCCC=CCCCOC(=O)N3CC[C@@](C(=O)N[C@@H](Cc4ccccc4)C(=O)N[C@@H](Cc4csc5ccccc45)C(=O)N[C@@H](CCC(N)=O)C(N)=O)(C3)NC(=O)[C@H](Cc3ccccc3)NC(=O)[C@H](Cc3ccccc3)NC(=O)[C@H](C)NC(=O)[C@H](C)NC(=O)[C@H](CN(CC(=O)O)CC(F)(F)F)NC(=O)[C@H](CC(=O)O)NC1=O)NC(=O)[C@H](CC(C)(C)C)NC(=O)[C@H](CC(=O)O)NC2=O (stereo partly drawn) [I-988, Ac-PL3-Asp-Npg-B5-Asp-TfeGA-Ala-Ala-Phe-Phe-PyrS2-Phe-BztA-Gln-NH2]	0.005 µM	2.35	11 µM (≈ 22.6 µg/mL)	13.9 µM	5.2 µM	78.1% and 81.3% and 81.9%	–	11.0% and 10.7% and 15.5%	5.7% and 22.3% and 21.2%	13.3% and 28.8% and 33.4%	61.5% and 72.0% and 76.2%	32.0% and 57.8% and 62.0%	–	–
CC(=O)N1CCC[C@]12CC=CCCCC1(CCCC=CCCCCCC[C@@](C)(C(=O)N[C@@H](Cc3ccccc3Cl)C(=O)N[C@@H](Cc3csc4ccccc34)C(=O)N[C@@H](CCC(N)=O)C(N)=O)NC(=O)[C@H](CCO)NC(=O)[C@H](Cc3ccccc3)NC(=O)[C@H](C)NC(=O)[C@H](C)NC(=O)[C@H](CN(CC(=O)O)CC(F)(F)F)NC(=O)[C@H](CC(=O)O)NC1=O)NC(=O)[C@H](CC(C)(C)C)NC(=O)[C@H](CC(=O)O)NC2=O (stereo partly drawn) [I-996, Ac-PL3-Asp-Npg-B5-Asp-TfeGA-Ala-Ala-Phe-Hse-S8-2C1F-BztA-Gln-NH2]	0.021 µM	2.84	48 µM (≈ 96.1 µg/mL)	11.3 µM	10.8 µM	–	3.6 µM	–	–	–	–	–	–	–
CC(=O)N1CCC[C@]12CC=CCCCC1(CCCC=CCCCOC(=O)N3CC[C@@](C(=O)N[C@@H](Cc4ccccc4Cl)C(=O)N[C@@H](Cc4csc5ccccc45)C(=O)N[C@@H](CO)C(N)=O)(C3)NC(=O)[C@H](CO)NC(=O)[C@H](Cc3ccccc3)NC(=O)[C@H](C)NC(=O)[C@H](C)NC(=O)[C@H](CC(=O)O)NC(=O)[C@H](CC(=O)O)NC1=O)NC(=O)[C@H](CC(C)(C)C)NC(=O)[C@H](CC(=O)O)NC2=O (stereo partly drawn) [I-1019, Ac-PL3-Asp-Npg-B5-Asp-Asp-Ala-Ala-Phe-Ser-PyrS2-2C1F-BztA-Ser-NH2]	0.005 µM	2.22	48 µM (≈ 90.2 µg/mL)	9.6 µM	8.3 µM	–	7.8 µM	–	–	–	–	–	–	–
CC(=O)N1CCC[C@]12CC=CCCCC1(CCCC=CCCCOC(=O)N3CC[C@@](C(=O)N[C@@H](Cc4ccsc4)C(=O)N[C@@H](Cc4csc5ccccc45)C(=O)N[C@@H](CCC(N)=O)C(N)=O)(C3)NC(=O)[C@H]([C@@H](C)O)NC(=O)[C@H](Cc3ccccc3)NC(=O)[C@H](C)NC(=O)[C@H](C)NC(=O)[C@H](CC(=O)O)NC(=O)[C@H](CC(=O)O)NC1=O)NC(=O)[C@H](CC(C)(C)C)NC(=O)[C@H](CC(=O)O)NC2=O (stereo partly drawn) [I-809, Ac-PL3-Asp-Npg-B5-Asp-Asp-Ala-Ala-Phe-Thr-PyrS2-3Thi-BztA-Gln-NH2]	0.005 µM	2.1	36 µM (≈ 68.6 µg/mL)	–	–	–	11.3 µM	–	–	–	–	–	6.1 µM	11.7 µM
CC(=O)N1CCC[C@]12CC=CCCCC1(CCCC=CCCCOC(=O)N3CC[C@@](C(=O)N[C@@H](Cc4ccccc4Cl)C(=O)N[C@@H](Cc4csc5ccccc45)C(=O)N[C@@H](C(N)=O)[C@H](C)O)(C3)NC(=O)[C@H](CC(N)=O)NC(=O)[C@H](Cc3ccccc3)NC(=O)[C@H](C)NC(=O)[C@H](C)NC(=O)[C@H](CC(=O)O)NC(=O)[C@H](CC(=O)O)NC1=O)NC(=O)[C@H](CC(C)(C)C)NC(=O)[C@H](CCC(=O)O)NC2=O (stereo partly drawn) [I-1029, Ac-PL3-Glu-Npg-B5-Asp-Asp-Ala-Ala-Phe-Asn-PyrS2-2C1F-BztA-dThr-NH2]	0.823 µM	2.36	49 µM (≈ 94.7 µg/mL)	> 20 µM	> 20 µM	–	–	–	–	–	–	–	–	–
